Measured values: PMC4730192, “Ligand selectivity in tachykinin and natalisin neuropeptidergic systems of the honey bee parasitic mite Varroa destructor” (Scientific Reports, 2016)
No end group written: not given here.

Key:
[1] = biological target: T1, A. mellifera TRP receptor (AmTRP-R) (Apis mellifera, UniProt A0ACM8RFV8); experiment: Aequorin calcium-mobilization reporter assay, AmTRP-R transiently expressed in CHO-K1 cells with Ga16; type: cell-based; settings: for EC50: CHO-K1 cells, Ga16 + aequorin luminescence, 10-fold serial dilutions, logistic fitting of dose-response curves; for Agonistic activity, AmTRP-R 0.01μM: ligand 0.01 μM; for Agonistic activity, AmTRP-R 0.01μM / Agonistic activity, AmTRP-R 1μM: relative luminescence normalized by highest activity of endogenous ligand AmTRP1, 3 biological replications; for Agonistic activity, AmTRP-R 1μM: ligand 1 μM; for Agonistic activity on AmTRP-R (in words): dose-response or expanded ligand test, 1 and 0.01 μM
T1 sequence (A0ACM8RFV8 1-421): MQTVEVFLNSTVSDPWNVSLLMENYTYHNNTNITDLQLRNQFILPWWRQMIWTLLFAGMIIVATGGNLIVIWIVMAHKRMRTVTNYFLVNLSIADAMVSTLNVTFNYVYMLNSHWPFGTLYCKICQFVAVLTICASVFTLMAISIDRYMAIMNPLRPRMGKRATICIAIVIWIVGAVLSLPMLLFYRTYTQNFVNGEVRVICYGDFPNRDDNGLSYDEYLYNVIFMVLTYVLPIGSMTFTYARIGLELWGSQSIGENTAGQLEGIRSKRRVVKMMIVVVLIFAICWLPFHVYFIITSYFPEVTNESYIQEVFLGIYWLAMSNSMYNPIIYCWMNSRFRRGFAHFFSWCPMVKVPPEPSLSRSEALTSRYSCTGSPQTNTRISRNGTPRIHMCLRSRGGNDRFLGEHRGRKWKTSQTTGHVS
Source text: (§1) In this system, ligand-mediated G-protein-coupled receptor (GPCR) activation initiates calcium mobilization that is indicated by the increased luminescence of aequorin.
(§2) The PCR amplicons of the full open reading frames (ORFs) of the three receptors were initially cloned into the pGEMT easy vector (Promega) and transferred to the expression vector pcDNA3.1(+) (Invitrogen) using the common restriction enzymes in the multi-cloning site (EcoRI for AmTRPR, NotI for both VdNTLR and VdTRPR). The sequences of the inserts were confirmed by Sanger sequencing prior to heterologous expression. High-quality plasmid DNA prepared using the plasmid MIDIprep kit (Qiagen) was used for transient transfection. The methods for transient expression of aequorin and G-alpha16 in Chinese hamster ovary (CHO-K1) cells and the procedures for the assays were previously described. Thirty hours after the transfection, the cells were collected and preincubated with the coelenterazine (Invitrogen) for the functional assay as previously described. Serial dilutions (10-fold, ranging from 0.001 to 1000 nM) of the 10 endogenous ligands were used for treatment of the cells. These ten natural ligands included two […] and three […] predicted from the respective putative precursors and also included five AmTRP peptides. The elevated luminescence caused by intracellular calcium mobilization was measured for a continuous 20 seconds at every 100-ms interval. Dose response curves and EC50s of each ligand for each receptor were obtained by logistic fitting in Origin 8.6 (OriginLab).
(§3) The test ligands were mainly the NTL peptides of T. castaneum, D. melanogaster, B. mori, and Anopheles gambiae and two TRPs, TcTRP4 and DmTRP6. Two doses of each ligand were tested for each receptor: 1 and 0.1 μM for VdNTL-R and VdTRP-R and 1 and 0.01 μM for AmTRP-R.

[2] = biological target: T2, V. destructor TRP receptor (VdTRP-R) (Varroa destructor, UniProt A0A141CIT9); experiment: Aequorin calcium-mobilization reporter assay, VdTRP-R transiently expressed in CHO-K1 cells with Ga16; type: cell-based; settings: for EC50: CHO-K1 cells, Ga16 + aequorin luminescence, 10-fold serial dilutions, logistic fitting of dose-response curves; for Agonistic activity, VdTRP-R 0.1μM: ligand 0.1 μM; for Agonistic activity, VdTRP-R 0.1μM / Agonistic activity, VdTRP-R 1μM: relative luminescence normalized by highest activity of endogenous ligand VdTRP3, 3 biological replications; for Agonistic activity, VdTRP-R 1μM: ligand 1 μM; for Receptor specificity among VdNTL-R, VdTRP-R and AmTRP-R (in words): expanded ligand test at two concentrations on the three receptors
T2 sequence (A0A141CIT9 1-437): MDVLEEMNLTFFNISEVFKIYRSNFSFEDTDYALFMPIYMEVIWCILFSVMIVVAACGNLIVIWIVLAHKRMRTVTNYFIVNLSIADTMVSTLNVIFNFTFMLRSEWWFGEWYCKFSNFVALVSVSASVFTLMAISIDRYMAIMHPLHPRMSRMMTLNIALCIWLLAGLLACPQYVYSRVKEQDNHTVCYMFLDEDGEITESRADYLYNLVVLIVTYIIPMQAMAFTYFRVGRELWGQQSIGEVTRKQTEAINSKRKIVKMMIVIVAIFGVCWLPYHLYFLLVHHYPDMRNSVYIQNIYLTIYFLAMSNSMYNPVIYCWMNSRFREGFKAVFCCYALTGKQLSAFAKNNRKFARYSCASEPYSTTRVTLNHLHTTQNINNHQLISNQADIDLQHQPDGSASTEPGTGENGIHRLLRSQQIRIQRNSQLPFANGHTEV
Source text: as §1, §2, §3

[3] = biological target: T3, V. destructor NTL receptor (VdNTL-R) (Varroa destructor, UniProt A0A141CIT8); experiment: Aequorin calcium-mobilization reporter assay, VdNTL-R transiently expressed in CHO-K1 cells with Ga16; type: cell-based; settings: for Agonistic activity, VdNTL-R 1μM: ligand 1 μM; for Agonistic activity, VdNTL-R 1μM / Agonistic activity, VdNTL-R 0.1μM: relative luminescence normalized by highest activity of endogenous ligand VdNTL1, 3 biological replications; for Agonistic activity, VdNTL-R 0.1μM: ligand 0.1 μM; for EC50: CHO-K1 cells, Ga16 + aequorin luminescence, 10-fold serial dilutions, logistic fitting of dose-response curves
T3 sequence (A0A141CIT8 1-461): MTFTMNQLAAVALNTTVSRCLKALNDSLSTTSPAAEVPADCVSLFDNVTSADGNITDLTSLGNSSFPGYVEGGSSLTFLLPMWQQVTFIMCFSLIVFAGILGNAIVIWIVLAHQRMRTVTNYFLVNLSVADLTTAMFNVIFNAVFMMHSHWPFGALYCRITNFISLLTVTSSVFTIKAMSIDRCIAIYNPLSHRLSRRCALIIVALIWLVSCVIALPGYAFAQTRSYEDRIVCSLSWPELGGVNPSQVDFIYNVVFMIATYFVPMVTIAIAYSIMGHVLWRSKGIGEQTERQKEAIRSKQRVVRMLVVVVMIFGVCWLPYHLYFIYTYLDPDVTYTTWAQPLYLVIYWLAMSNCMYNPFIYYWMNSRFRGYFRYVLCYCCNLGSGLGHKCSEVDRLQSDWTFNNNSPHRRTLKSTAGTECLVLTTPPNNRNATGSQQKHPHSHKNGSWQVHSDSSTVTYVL
Source text: as §1, §2, §3

[4] = system: pea aphid Acyrthosiphon pisum; settings: by feeding; cited from earlier work
[5] = system: cockroach TRP myotropic bioassay; settings: cited from earlier work
[6] = expanded ligand test, 1 and 0.1 μM

Substance	EC50 [1] [µM]	EC50 [2] [µM]	Agonistic activity, AmTRP-R 0.01μM [1] [RLU]	Agonistic activity, AmTRP-R 1μM [1] [RLU]	Agonistic activity, VdNTL-R 1μM [3] [RLU]	Agonistic activity, VdTRP-R 0.1μM [2] [RLU]	Agonistic activity, VdTRP-R 1μM [2] [RLU]	Agonistic activity, VdNTL-R 0.1μM [3] [RLU]	further results
AAPFHAMR-NH2 [VdTRP2]	0.095	0.071							
AFHAMR-NH2 [VdTRP1]	0.095	0.055							
ALMGFQGVR-NH2 [AmTRP1]	0.0003		69	100	37.1	2.5	34.9		
APMGFQGMR-NH2 [AmTRP2,3]		0.25							
ASGQEEFGPFWANRa [TcNTL1, NTL peptide of T. castaneum]			4.6	-0.2	1.5	2.2	60.7	1	Receptor specificity among VdNTL-R, VdTRP-R and AmTRP-R (in words) [2]: specifically activated only VdTRP-R
DLRQENDPFWGNR-NH2 [BmNTL3, NTL peptide of B. mori]			4.7	-0.8	0.1	30.7	83.4	0.4	Receptor specificity among VdNTL-R, VdTRP-R and AmTRP-R (in words) [2]: specifically activated only VdTRP-R
GGVPGFVGAR-NH2 [VdNTL2]	0.0007								Agonistic activity on AmTRP-R (in words) [1]: equally potent as the AmTRPs; EC50 [3]: 0.037 µM
GSFFGMR-NH2 [VdTRP3, GSFFGMRa]	0.013	0.0043	58	96.3	24.8	107.6	100		
HRNLFQVDDPFFATRa [DmNTL4, NTL peptide of D. melanogaster]			9.5	79.7	30.4	10.3	70.9	0.8	
LQLRDLYNADDPFVPNRa [DmNTL5, NTL peptide of D. melanogaster]			6.5	-1.2	0.1	0.7	3.1	0.2	
NPRWEFRGKFVGVR-NH2 [AmTRP7]	0.0008	0.093							Lower sensitivity of VdTRP-R relative to VdTRP3 ([2]; fold lower sensitivity versus VdTRP3): > 10 ×
SIGGPAPGFVGAR-NH2 [VdNTL1]	0.0045		60.2	98.4	100	1.3	18.6	96.2	Difference in activity on AmTRP-R between VdNTL1 and VdNTL2 ([1]; VdNTL1 compared with VdNTL2): approximately 6 ×; EC50 [3]: 0.026 µM
TEENPFWANR-NH2 [BmNTL5, NTL peptide of B. mori]			6	-0.2	0.4	7.3	61.2	0.3	Receptor specificity among VdNTL-R, VdTRP-R and AmTRP-R (in words) [2]: specifically activated only VdTRP-R
pQA[Aib]SGFL[Aib]VRamide [compound 1888]			-0.4	62.9	1.9	0.3	1	-0.4	Agonistic activity on AmTRP-R (in words) [1]: some activity; Oral aphicidal activity [4]: potent oral aphicidal activity; Agonistic activity on VdNTL-R (in words) [3, 6]: failing to show agonistic activity; Agonistic activity on VdTRP-R (in words) [2, 6]: failing to show agonistic activity; Activity in a cockroach TRP myotropic bioassay [5]: highly potent activity
